Results from publication PMC7211198, “Phase 1b study of a small molecule antagonist of human chemokine (C-C motif) receptor 2 (PF-04136309) in combination with nab-paclitaxel/gemcitabine in first-line treatment of metastatic pancreatic ductal adenocarcinoma” (Investigational New Drugs, 2019).

Test: Safety and tolerability (TEAEs, SAEs, DLTs, RP2D) in phase Ib study
Assay type: in vivo, human
Conditions: 500 mg BID + nab-P/Gem
From the text: Safety assessments included collection of adverse events (AEs), serious AEs (SAEs), vital signs and physical examination, electrocardiogram (12-lead), laboratory assessments, including pregnancy test, and verification of concomitant treatments. A patient was considered as DLT-evaluable if the patient experienced a DLT or if otherwise, in the absence of a DLT, the patient received at least 85% of the planned doses of each study drug in the first 28-day cycle. DLTs were defined as any of the following events occurring in the first cycle of treatment (days 1 through 28) and attributed (i.e., judged to be at least possibly related) to the combination of PF-04136309 plus nab-paclitaxel/gemcitabine, where relationship with the combination could not be ruled out. DLTs were hematologic events of grade 4 neutropenia lasting >5 days; febrile neutropenia; grade ≥ 3 neutropenic infection; grade ≥ 3 thrombocytopenia with grade ≥ 2 bleeding; grade 4 thrombocytopenia; and nonhematologic events of grade 3 toxicities. Exceptions included nausea and vomiting responding to prophylaxis and/or treatment and lasting <7 days from each chemotherapy infusion period; diarrhea responding to treatment and lasting <7 days; grade 3 fatigue lasting <7 days; grade 3 QT interval corrected for heart rate prolongation (>500 msec) persisting after correction of any reversible causes; and/or grade 3 aspartate aminotransferase (AST) and/or alanine aminotransferase (ALT) increase lasting ≤7 days. All grade 4 toxicities and a delay of >2 weeks in receiving the next scheduled cycle due to persistent treatment-related toxicities were considered DLTs. AEs meeting DLT criteria in the dose-expansion phase included grade 3 events of diarrhea, hypokalemia, and dysesthesia and grade 4 hypoxia. […] AEs were graded according to the National Cancer Institute Common Terminology Criteria for Adverse Events, version 4.03.

## O=C(NCC(=O)N1CC[C@H](N[C@H]2CC[C@@](O)(c3ccc(-c4ncccn4)cn3)CC2)C1)c1cccc(C(F)(F)F)c1 [PF-04136309]
N = 17, first cycle (days 1 through 28)
  DLT: 3 (17.6) n (%)
N = 17, treatment-related TEAE
  ALT increase, grade ≥3: 3 (17.6) n (%)
  AST increase, grade ≥3: 3 (17.6) n (%)
  Anemia, grade ≥3: 4 (23.5) n (%)
  Fatigue, grade ≥3: 4 (23.5) n (%)
  Leukopenia, grade ≥3: 2 (11.8) n (%)
  Lymphopenia, grade ≥3: 4 (23.5) n (%)
  Neutropenia, grade ≥3: 2 (11.8) n (%)
all-causality SAE
  Abdominal pain, Grade 1: 0 n (%)
  Abdominal pain, Grade 2: 0 n (%)
  Abdominal pain, Grade 3: 2 (11.8) n (%)
  Abdominal pain, Grade 4: 0 n (%)
  Abdominal pain, Grade 5: 0 n (%)
  Abdominal pain, Total: 2 (11.8) n (%)
  Any SAE, Grade 1: 1 (5.9) n (%)
  Any SAE, Grade 2: 1 (5.9) n (%)
  Any SAE, Grade 3: 7 (41.2) n (%)
  Any SAE, Grade 4: 1 (5.9) n (%)
  Any SAE, Grade 5: 1 (5.9) n (%)
  Any SAE, Total: 11 (64.7) n (%)
  Chest pain, Grade 1: 0 n (%)
  Chest pain, Grade 2: 0 n (%)
  Chest pain, Grade 3: 1 (5.9) n (%)
  Chest pain, Grade 4: 0 n (%)
  Chest pain, Grade 5: 0 n (%)
  Chest pain, Total: 1 (5.9) n (%)
  Dyspnea, Grade 1: 0 n (%)
  Dyspnea, Grade 2: 0 n (%)
  Dyspnea, Grade 3: 1 (5.9) n (%)
  Dyspnea, Grade 4: 0 n (%)
  Dyspnea, Grade 5: 0 n (%)
  Dyspnea, Total: 1 (5.9) n (%)
  Episcleritis, Grade 1: 0 n (%)
  Episcleritis, Grade 2: 1 (5.9) n (%)
  Episcleritis, Grade 3: 0 n (%)
  Episcleritis, Grade 4: 0 n (%)
  Episcleritis, Grade 5: 0 n (%)
  Episcleritis, Total: 1 (5.9) n (%)
  Hypoxia, Grade 1: 0 n (%)
  Hypoxia, Grade 2: 0 n (%)
  Hypoxia, Grade 3: 0 n (%)
  Hypoxia, Grade 4: 1 (5.9) n (%)
  Hypoxia, Grade 5: 0 n (%)
  Hypoxia, Total: 1 (5.9) n (%)
  Klebsiella bacteremia, Grade 1: 0 n (%)
  Klebsiella bacteremia, Grade 2: 0 n (%)
  Klebsiella bacteremia, Grade 3: 1 (5.9) n (%)
  Klebsiella bacteremia, Grade 4: 0 n (%)
  Klebsiella bacteremia, Grade 5: 0 n (%)
  Klebsiella bacteremia, Total: 1 (5.9) n (%)
  Liver abscess, Grade 1: 0 n (%)
  Liver abscess, Grade 2: 0 n (%)
  Liver abscess, Grade 3: 1 (5.9) n (%)
  Liver abscess, Grade 4: 0 n (%)
  Liver abscess, Grade 5: 0 n (%)
  Liver abscess, Total: 1 (5.9) n (%)
  Musculoskeletal pain, Grade 1: 0 n (%)
  Musculoskeletal pain, Grade 2: 0 n (%)
  Musculoskeletal pain, Grade 3: 1 (5.9) n (%)
  Musculoskeletal pain, Grade 4: 0 n (%)
  Musculoskeletal pain, Grade 5: 0 n (%)
  Musculoskeletal pain, Total: 1 (5.9) n (%)
  Neck pain, Grade 1: 0 n (%)
  Neck pain, Grade 2: 0 n (%)
  Neck pain, Grade 3: 1 (5.9) n (%)
  Neck pain, Grade 4: 0 n (%)
  Neck pain, Grade 5: 0 n (%)
  Neck pain, Total: 1 (5.9) n (%)
  Pneumonia, Grade 1: 0 n (%)
  Pneumonia, Grade 2: 0 n (%)
  Pneumonia, Grade 3: 0 n (%)
  Pneumonia, Grade 4: 0 n (%)
  Pneumonia, Grade 5: 1 (5.9) n (%)
  Pneumonia, Total: 1 (5.9) n (%)
  Pneumonitis, Grade 1: 0 n (%)
  Pneumonitis, Grade 2: 0 n (%)
  Pneumonitis, Grade 3: 3 (17.6) n (%)
  Pneumonitis, Grade 4: 0 n (%)
  Pneumonitis, Grade 5: 0 n (%)
  Pneumonitis, Total: 3 (17.6) n (%)
  Pyrexia, Grade 1: 1 (5.9) n (%)
  Pyrexia, Grade 2: 1 (5.9) n (%)
  Pyrexia, Grade 3: 0 n (%)
  Pyrexia, Grade 4: 0 n (%)
  Pyrexia, Grade 5: 0 n (%)
  Pyrexia, Total: 2 (11.8) n (%)
  Small intestinal obstruction, Grade 1: 0 n (%)
  Small intestinal obstruction, Grade 2: 0 n (%)
  Small intestinal obstruction, Grade 3: 1 (5.9) n (%)
  Small intestinal obstruction, Grade 4: 0 n (%)
  Small intestinal obstruction, Grade 5: 0 n (%)
  Small intestinal obstruction, Total: 1 (5.9) n (%)
all-causality TEAE
  ALT increase, Grade 1: 1 (5.9) n (%)
  ALT increase, Grade 2: 2 (11.8) n (%)
  ALT increase, Grade 3: 3 (17.6) n (%)
  ALT increase, Grade 4: 1 (5.9) n (%)
  ALT increase, Grade 5: 0 n (%)
  ALT increase, Total: 7 (41.2) n (%)
  AST increase, Grade 1: 0 n (%)
  AST increase, Grade 2: 1 (5.9) n (%)
  AST increase, Grade 3: 5 (29.4) n (%)
  AST increase, Grade 4: 0 n (%)
  AST increase, Grade 5: 0 n (%)
  AST increase, Total: 6 (35.3) n (%)
  Abdominal pain, Grade 1: 0 n (%)
  Abdominal pain, Grade 2: 3 (17.6) n (%)
  Abdominal pain, Grade 3: 3 (17.6) n (%)
  Abdominal pain, Grade 4: 0 n (%)
  Abdominal pain, Grade 5: 0 n (%)
  Abdominal pain, Total: 6 (35.3) n (%)
  Alopecia, Grade 1: 7 (41.2) n (%)
  Alopecia, Grade 2: 3 (17.6) n (%)
  Alopecia, Grade 3: 0 n (%)
  Alopecia, Grade 4: 0 n (%)
  Alopecia, Grade 5: 0 n (%)
  Alopecia, Total: 10 (58.8) n (%)
  Anemia, Grade 1: 2 (11.8) n (%)
  Anemia, Grade 2: 5 (29.4) n (%)
  Anemia, Grade 3: 4 (23.5) n (%)
  Anemia, Grade 4: 0 n (%)
  Anemia, Grade 5: 0 n (%)
  Anemia, Total: 11 (64.7) n (%)
  Any AE, Grade 1: 0 n (%)
  Any AE, Grade 2: 1 (5.9) n (%)
  Any AE, Grade 3: 12 (70.6) n (%)
  Any AE, Grade 4: 3 (17.6) n (%)
  Any AE, Grade 5: 1 (5.9) n (%)
  Any AE, Total: 17 (100.0) n (%)
  Appetite decrease, Grade 1: 5 (29.4) n (%)
  Appetite decrease, Grade 2: 0 n (%)
  Appetite decrease, Grade 3: 1 (5.9) n (%)
  Appetite decrease, Grade 4: 0 n (%)
  Appetite decrease, Grade 5: 0 n (%)
  Appetite decrease, Total: 6 (35.3) n (%)
  Blood alkaline phosphatase, Grade 1: 1 (5.9) n (%)
  Blood alkaline phosphatase, Grade 2: 4 (23.5) n (%)
  Blood alkaline phosphatase, Grade 3: 2 (11.8) n (%)
  Blood alkaline phosphatase, Grade 4: 0 n (%)
  Blood alkaline phosphatase, Grade 5: 0 n (%)
  Blood alkaline phosphatase, Total: 7 (41.2) n (%)
  Constipation, Grade 1: 5 (29.4) n (%)
  Constipation, Grade 2: 2 (11.8) n (%)
  Constipation, Grade 3: 0 n (%)
  Constipation, Grade 4: 0 n (%)
  Constipation, Grade 5: 0 n (%)
  Constipation, Total: 7 (41.2) n (%)
  Diarrhea, Grade 1: 4 (23.5) n (%)
  Diarrhea, Grade 2: 2 (11.8) n (%)
  Diarrhea, Grade 3: 1 (5.9) n (%)
  Diarrhea, Grade 4: 0 n (%)
  Diarrhea, Grade 5: 0 n (%)
  Diarrhea, Total: 7 (41.2) n (%)
  Edema, peripheral, Grade 1: 7 (41.2) n (%)
  Edema, peripheral, Grade 2: 1 (5.9) n (%)
  Edema, peripheral, Grade 3: 0 n (%)
  Edema, peripheral, Grade 4: 0 n (%)
  Edema, peripheral, Grade 5: 0 n (%)
  Edema, peripheral, Total: 8 (47.1) n (%)
  Fatigue, Grade 1: 4 (23.5) n (%)
  Fatigue, Grade 2: 4 (23.5) n (%)
  Fatigue, Grade 3: 5 (29.4) n (%)
  Fatigue, Grade 4: 0 n (%)
  Fatigue, Grade 5: 0 n (%)
  Fatigue, Total: 13 (76.5) n (%)
  Headache, Grade 1: 4 (23.5) n (%)
  Headache, Grade 2: 1 (5.9) n (%)
  Headache, Grade 3: 0 n (%)
  Headache, Grade 4: 0 n (%)
  Headache, Grade 5: 0 n (%)
  Headache, Total: 5 (29.4) n (%)
  Hyperglycemia, Grade 1: 2 (11.8) n (%)
  Hyperglycemia, Grade 2: 3 (17.6) n (%)
  Hyperglycemia, Grade 3: 3 (17.6) n (%)
  Hyperglycemia, Grade 4: 0 n (%)
  Hyperglycemia, Grade 5: 0 n (%)
  Hyperglycemia, Total: 8 (47.1) n (%)
  Insomnia, Grade 1: 7 (41.2) n (%)
  Insomnia, Grade 2: 1 (5.9) n (%)
  Insomnia, Grade 3: 0 n (%)
  Insomnia, Grade 4: 0 n (%)
  Insomnia, Grade 5: 0 n (%)
  Insomnia, Total: 8 (47.1) n (%)
  Lymphopenia, Grade 1: 0 n (%)
  Lymphopenia, Grade 2: 0 n (%)
  Lymphopenia, Grade 3: 5 (29.4) n (%)
  Lymphopenia, Grade 4: 0 n (%)
  Lymphopenia, Grade 5: 0 n (%)
  Lymphopenia, Total: 5 (29.4) n (%)
  Nausea, Grade 1: 12 (70.6) n (%)
  Nausea, Grade 2: 2 (11.8) n (%)
  Nausea, Grade 3: 0 n (%)
  Nausea, Grade 4: 0 n (%)
  Nausea, Grade 5: 0 n (%)
  Nausea, Total: 14 (82.4) n (%)
  Neuropathy peripheral, Grade 1: 8 (47.1) n (%)
  Neuropathy peripheral, Grade 2: 1 (5.9) n (%)
  Neuropathy peripheral, Grade 3: 0 n (%)
  Neuropathy peripheral, Grade 4: 0 n (%)
  Neuropathy peripheral, Grade 5: 0 n (%)
  Neuropathy peripheral, Total: 9 (52.9) n (%)
  Pyrexia, Grade 1: 7 (41.2) n (%)
  Pyrexia, Grade 2: 5 (29.4) n (%)
  Pyrexia, Grade 3: 0 n (%)
  Pyrexia, Grade 4: 0 n (%)
  Pyrexia, Grade 5: 0 n (%)
  Pyrexia, Total: 12 (70.6) n (%)
  Rash, Grade 1: 7 (41.2) n (%)
  Rash, Grade 2: 1 (5.9) n (%)
  Rash, Grade 3: 0 n (%)
  Rash, Grade 4: 0 n (%)
  Rash, Grade 5: 0 n (%)
  Rash, Total: 8 (47.1) n (%)
  Vomiting, Grade 1: 6 (35.3) n (%)
  Vomiting, Grade 2: 1 (5.9) n (%)
  Vomiting, Grade 3: 0 n (%)
  Vomiting, Grade 4: 0 n (%)
  Vomiting, Grade 5: 0 n (%)
  Vomiting, Total: 7 (41.2) n (%)
  Weight decreased, Grade 1: 5 (29.4) n (%)
  Weight decreased, Grade 2: 4 (23.5) n (%)
  Weight decreased, Grade 3: 0 n (%)
  Weight decreased, Grade 4: 0 n (%)
  Weight decreased, Grade 5: 0 n (%)
  Weight decreased, Total: 9 (52.9) n (%)
treatment-related SAE
  Any SAE, Grade 1: 0 n (%)
  Any SAE, Grade 2: 0 n (%)
